The values that follow come from ChEMBL document CHEMBL1629535, “Novel small molecule inhibitors of MDR Mycobacterium tuberculosis by NMR fragment screening of antigen 85C” (2010).

Structures are written as SMILES. Converted amounts (≈) assume the structure as drawn. The source made the active and inactive calls. No cut-off for these calls is given here.

Sequence of Diacylglycerol acyltransferase/mycolyltransferase Ag85C (Mycobacterium tuberculosis) (P9WQN9 whole entry): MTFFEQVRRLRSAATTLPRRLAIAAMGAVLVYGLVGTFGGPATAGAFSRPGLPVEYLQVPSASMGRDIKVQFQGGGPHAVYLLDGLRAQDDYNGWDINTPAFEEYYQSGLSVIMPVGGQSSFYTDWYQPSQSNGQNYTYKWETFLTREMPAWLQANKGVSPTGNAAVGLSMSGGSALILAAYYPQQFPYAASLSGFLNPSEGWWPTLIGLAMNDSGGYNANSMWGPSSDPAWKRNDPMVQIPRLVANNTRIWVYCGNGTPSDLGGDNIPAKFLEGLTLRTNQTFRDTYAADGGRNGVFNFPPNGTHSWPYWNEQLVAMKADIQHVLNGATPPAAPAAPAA

The first assay addresses Diacylglycerol acyltransferase/mycolyltransferase Ag85C (Mycobacterium tuberculosis) (UniProt P9WQN9). As to the kind of experiment: Binding affinity to substrate binding site of multidrug resistance Mycobacterium tuberculosis antigen 85C by NMR assay.
Consider `CC(=O)Nc1sc2c(c1C#N)CCCC2`, for which the result was inactive.

In the case of `CCC1CCc2c(sc(N)c2C#N)C1` (stereo not drawn), the outcome was Active.

For the compound `N#Cc1c(N)sc2c1CCCCC2`, the result was Active.

With `CC(=O)c1c(N)sc2c1CCCC2`, the outcome was Active.

In the case of `CC1(C)Cc2c(sc(N)c2C#N)CO1`, the outcome was inactive.

As for `CCCC1CCc2c(sc(N)c2C#N)C1` (stereo not drawn), the result was Active.

Consider `CCN1CCc2c(sc(N)c2C#N)C1`, for which the outcome was inactive.

On to `CCC1(C)Cc2c(sc(N)c2C#N)CO1` (stereo not drawn), for which the outcome was inactive.

Turning to `N#Cc1c(N)sc2c1C1CCN2CC1`, the result was inactive.

For `O=c1[nH]c(-c2ccncc2)nc2sc3c(c12)CCCC3`, the outcome was inactive.

Turning to `CCOC(=O)c1c(N)sc2c1C(C)CCC2` (stereo not drawn), the outcome was Active.

In the case of `CC(C)C(=O)Nc1sc2c(c1C#N)CCCC2`, the result was inactive.

For `CC1CCc2c(sc(N)c2C(N)=O)C1` (stereo not drawn), the result was Active.

With `CCC1CCc2c(sc(N)c2C(N)=O)C1` (stereo not drawn), the result was Active.

For `Nc1sc2c(c1C(=O)NCc1ccccc1)CCCC2`, the result was inactive.

With `CC1CCc2c(sc(N)c2C#N)C1` (stereo not drawn), the outcome was Active.

In the case of `N#Cc1c(N)sc2c1CCCC2`, the outcome was Active.

Turning to `CCCC1CCc2c(sc(N)c2C(N)=O)C1` (stereo not drawn), the result was Active.

For the compound `COC(=O)c1c(N)sc2c1CCCC2`, the result was Active.

A further assay concerns Mycobacterium tuberculosis. Nature of the assay: Growth inhibition of multidrug resistance Mycobacterium tuberculosis 2745/09. In kind it is functional.
By MIC is commonly meant the least concentration at which growth counts as inhibited. Low values mean inhibition by little substance, high ones a need for much substance. Turning to `CCC1CCc2c(sc(N)c2C#N)C1` (stereo not drawn), the minimum inhibitory concentration (MIC) amounted to 50 µg/mL (≈ 242 µM).

On to `N#Cc1c(N)sc2c1CCCCC2`, for which 500 µg/mL (≈ 2600 µM) was the least that counted as inhibitory (MIC).

Compound `CCCC1CCc2c(sc(N)c2C#N)C1` (stereo not drawn) gave an MIC of 50 µg/mL (≈ 227 µM).

`CCCOc1ccc2nc(N)sc2c1` returned an MIC of 20 µg/mL (≈ 96 µM).
